Test results from patent US10617680B2 (CELGENE QUANTICEL RESEARCH, INC., priority 2017, dated 2020).
Read-outs that look alike come from different tables or passages of the source.

Molecular target: CBP (Homo sapiens (Human), UniProt Q92793)
Test: In vitro CBP inhibition (AlphaScreen, biotinylated H4-tetraacetyl peptide)
Format: binding
How it was run: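 His-tagged CBP expressed in E. coli (50 nM final) incubated with biotinylated H4K5/8/12/16(Ac) peptide (20 nM final) in 50 mM HEPES pH 7.3, 10 mM NaCl, 0.25 mM TCEP, 0.1% BSA, 0.005% Brij-35, 0.4% DMSO, 20 min at room temp.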

[1] = AlphaScreen, Table 29, read-out: CBP IC50

Sequence of CBP (Q92793 1081-1197): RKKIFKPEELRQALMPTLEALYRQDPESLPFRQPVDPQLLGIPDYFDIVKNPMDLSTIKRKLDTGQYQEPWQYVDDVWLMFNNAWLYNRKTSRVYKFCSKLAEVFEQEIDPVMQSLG

Row | IC50 [1] [nM] | Structure (SMILES) | IC50 [nM]
1 | < 500 | CCOc1cc(=O)n(C)cc1-c1cnn(-c2cccc(C(C)C)c2C#N)c1 [Example 176, 2-[4-(4-Ethoxy-1-methyl-6-oxo-1,6-dihydro-pyridin-3-yl)-pyrazol-1-yl]-6-isopropyl-benzonitrile] | 
2 | < 500 | CCOc1cc(=O)n(C)cc1-c1cnn(-c2cccc(OC)c2C#N)c1 [Example 177, 2-[4-(4-Ethoxy-1-methyl-6-oxo-1,6-dihydro-pyridin-3-yl)-pyrazol-1-yl]-6-methoxy-benzonitrile] | 
3 | < 500 | CCOc1cc(=O)n(C)cc1-c1cnn(-c2cccc(Cl)c2C#N)c1 [Example 178, 2-Chloro-6-[4-(4-ethoxy-1-methyl-6-oxo-1,6-dihydro-pyridin-3-yl)-pyrazol-1-yl]-benzonitrile] | 
4 | < 500 | CCOc1cc(=O)n(C)cc1-c1cnn(-c2cccc(C)c2C#N)c1 [Example 179, 2-[4-(4-Ethoxy-1-methyl-6-oxo-1,6-dihydro-pyridin-3-yl)-pyrazol-1-yl]-6-methyl-benzonitrile] | 
5 | < 500 | CCOc1cc(=O)n(C)cc1-c1cnn(-c2ccccc2S(C)(=O)=O)c1 [Example 180, 4-Ethoxy-5-[1-(2-methanesulfonyl-phenyl)-1H-pyrazol-4-yl]-1-methyl-1H-pyridin-2-one] | 
6 | < 500 | CCOc1cc(=O)n(C)cc1-c1cnn(C2CCCN(S(C)(=O)=O)C2)c1 (stereo not drawn) [Example 181, 4-ethoxy-1-methyl-5-(1-(1-(methylsulfonyl)piperidin-3-yl)-1H-pyrazol-4-yl)pyridin-2(1H)-one] | 
7 | < 500 | CCOc1cc(=O)n(C)cc1-c1cnn(-c2cc(OC)ccc2C#N)c1 [Example 182, 2-[4-(4-Ethoxy-1-methyl-6-oxo-1,6-dihydro-pyridin-3-yl)-pyrazol-1-yl]-4-methoxy-benzonitrile] | 
8 | < 500 | CCOc1cc(=O)n(C)cc1-c1cnn(-c2cc(Oc3ccccc3)ccc2C#N)c1 [Example 183, 2-[4-(4-Ethoxy-1-methyl-6-oxo-1,6-dihydro-pyridin-3-yl)-pyrazol-1-yl]-4-phenoxy-benzonitrile] | 
9 | < 500 | CCOc1cc(=O)n(C)cc1-c1cnn(-c2cc(OC3CC3)ccc2C#N)c1 [Example 184, 4-Cyclopropoxy-2-[4-(4-ethoxy-1-methyl-6-oxo-1,6-dihydro-pyridin-3-yl)-pyrazol-1-yl]-benzonitrile] | 
10 | < 500 | CCOc1cc(=O)n(C)cc1-c1cn(Cc2ccccc2)nc1[N+](=O)[O-] [Example 185, 5-(1-benzyl-3-nitro-1H-pyrazol-4-yl)-4-ethoxy-1-methylpyridin-2(1H)-one] | 
11 | < 500 | CCOc1cc(=O)n(C)cc1-c1cn(Cc2ccccc2)nc1N [Example 186, 5-(3-amino-1-benzyl-1H-pyrazol-4-yl)-4-ethoxy-1-methylpyridin-2(1H)-one] | 
12 |  | CCOc1cc(=O)n(C)cc1-c1cn(Cc2ccccc2)nc1NC(C)=O [Example 187, N-[1-Benzyl-4-(4-ethoxy-1-methyl-6-oxo-1,6-dihydro-pyridin-3-yl)-1H-pyrazol-3-yl]-acetamide] | 500 to 5000
13 | < 500 | Cn1cc(-c2cnn(CC3CC3(F)F)c2)c(-c2ccccc2)cc1=O (stereo not drawn) [Example 190, 5-[1-(2,2-Difluoro-cyclopropylmethyl)-1H-pyrazol-4-yl]-1-methyl-4-phenyl-1H-pyridin-2-one] | 
14 | < 500 | COc1ccc(-c2cc(=O)n(C)cc2-c2cnn(CC3CC3(F)F)c2)cc1 (stereo not drawn) [Example 191, 5-[1-(2,2-Difluoro-cyclopropylmethyl)-1H-pyrazol-4-yl]-4-(4-methoxy-phenyl)-1-methyl-1H-pyridin-2-one] | 
15 | < 500 | Cn1cc(-c2cc(=O)n(C)cc2-c2cnn(CC3CC3(F)F)c2)cn1 (stereo not drawn) [Example 192, 5-[1-(2,2-Difluoro-cyclopropylmethyl)-1H-pyrazol-4-yl]-1-methyl-4-(1-methyl-1H-pyrazol-4-yl)-1H-pyridin-2-one] | 
16 | < 500 | Cn1cc(-c2cnn(Cc3ccccc3)c2)c(-c2cc[nH]c(=O)c2)cc1=O [Example 193, 5-(1-Benzyl-1 H-pyrazol-4-yl)-1-methyl-1H,1′H-[4,4′]bipyridinyl-2,2′-dione] | 
17 | < 500 | Cn1cc(-c2cnn(Cc3ccccc3)c2)c(-c2ccc(=O)[nH]c2)cc1=O [Example 194, 5′-(1-Benzyl-1H-pyrazol-4-yl)-1′-methyl-1H,1′H-[3,4′]bipyridinyl-6,2′-dione] | 

Row | IC50 [1] [nM] | Structure (SMILES) | IC50 [nM]
18 | < 500 | CCOC(=O)c1nn(Cc2ccccc2)cc1-c1cc(C)c(=O)n(C)c1 [Example 198, 1-Benzyl-4-(1,5-dimethyl-6-oxo-1,6-dihydro-pyridin-3-yl)-1H-pyrazole-3-carboxylic acid ethyl ester] | 
19 | < 500 | CCOC(=O)c1c(-c2cc(C)c(=O)n(C)c2)cnn1Cc1ccccc1 [Example 199, 2-Benzyl-4-(1,5-dimethyl-6-oxo-1,6-dihydro-pyridin-3-yl)-2H-pyrazole-3-carboxylic acid ethyl ester] | 
20 | < 500 | Cn1cc(-c2cnn(Cc3ccccc3)c2)c(NCCC(=O)O)cc1=O [Example 201, 3-((5-(1-benzyl-1H-pyrazol-4-yl)-1-methyl-2-oxo-1,2-dihydropyridin-4-yl)amino)propanoic Acid] | 
21 | < 500 | CC(C)Oc1cc(=O)n(C)cc1-c1cnn(-c2ccccc2C#N)c1 [Example 202, 2-[4-(4-Isopropoxy-1-methyl-6-oxo-1,6-dihydro-pyridin-3-yl)-pyrazol-1-yl]-benzonitrile] | 
22 | < 500 | CC(C)Oc1cc(=O)n(C)cc1-c1cnn(-c2ccccc2C(=O)O)c1 [Example 203, 2-[4-(4-Isopropoxy-1-methyl-6-oxo-1,6-dihydro-pyridin-3-yl)-pyrazol-1-yl]-benzoic Acid] | 
23 | < 500 | Cn1cc(-c2cc(=O)n(C)cc2-c2cnn(-c3ccccc3C#N)c2)cn1 [Example 204, 2-{4-[1-Methyl-4-(1-methyl-1H-pyrazol-4-yl)-6-oxo-1,6-dihydro-pyridin-3-yl]-pyrazol-1-yl}-benzonitrile] | 
24 | < 500 | Cn1cc(-c2cnn(-c3ccccc3C#N)c2)c(-c2cc[nH]c(=O)c2)cc1=O [Example 205, 2-[4-(1-Methyl-6,2′-dioxo-1,6,1′,2′-tetrahydro-[4,4′]bipyridinyl-3-yl)-pyrazol-1-yl]-benzonitrile] | 
25 | < 500 | Cn1cc(-c2cnn(-c3ccccc3C#N)c2)c(-c2ccc(=O)[nH]c2)cc1=O [Example 206, 2-[4-(1′-Methyl-6,6′-dioxo-1,6,1′,6′-tetrahydro-[3,4′]bipyridinyl-3′-yl)-pyrazol-1-y]benzonitrile] | 
26 | < 500 | Cn1cc(-c2cnn(-c3ccccc3C#N)c2)c(C2CC2)cc1=O [Example 207, 2-[4-(4-Cyclopropyl-1-methyl-6-oxo-1,6-dihydro-pyridin-3-yl)-pyrazol-1-yl]-benzonitrile] | 
27 | < 500 | Cn1cc(-c2cc(=O)n(C)cc2-c2cnn(-c3ccccc3C(=O)O)c2)cn1 [Example 208, 2-{4-[1-Methyl-4-(1-methyl-1H-pyrazol-4-yl)-6-oxo-1,6-dihydro-pyridin-3-yl]-pyrazol-1-yl}-benzoic acid] | 
28 | < 500 | Cn1cc(-c2cc(=O)n(C)cc2-c2cnn(-c3ccccc3C#N)c2)ccc1=O [Example 209, 2-[4-(1,1′-Dimethyl-6,6′-dioxo-1,6,1′,6′-tetrahydro-[3,4′]bipyridinyl-3′-yl)-pyrazol-1-yl]-benzonitrile] | 
29 | < 500 | Cc1cc(-c2cc(=O)n(C)cc2-c2cnn(-c3ccccc3C#N)c2)c[nH]c1=O [Example 210, 2-[4-(5,1′-Dimethyl-6,6′-dioxo-1,6,1′,6′-tetrahydro-[3,4′]bipyridinyl-3′-yl)-pyrazol-1-yl]-benzonitrile] | 
30 | < 500 | Cn1cc(-c2cnn(-c3ccccc3C(=O)O)c2)c(C2CC2)cc1=O [Example 211, 2-[4-(4-Cyclopropyl-1-methyl-6-oxo-1,6-dihydro-pyridin-3-yl)-pyrazol-1-yl]-benzoic acid] | 
31 | < 500 | Cn1cc(-c2cnn(-c3ccccc3C#N)c2)c(-c2ccccc2)cc1=O [Example 212, 2-[4-(1-Methyl-6-oxo-4-phenyl-1,6-dihydro-pyridin-3-yl)-pyrazol-1-yl]-benzonitrile] | 
32 | < 500 | Cc1ccc(-c2cc(=O)n(C)cc2-c2cnn(-c3ccccc3C#N)c2)cc1 [Example 213, 2-[4-(1-Methyl-6-oxo-4-p-tolyl-1,6-dihydro-pyridin-3-yl)-pyrazol-1-yl]-benzonitrile] | 
33 | < 500 | Cn1cc(-c2cnn(-c3ccccc3C#N)c2)c(-c2ccc(Cl)cc2)cc1=O [Example 214, 2-{4-[4-(4-Chloro-phenyl)-1-methyl-6-oxo-1,6-dihydro-pyridin-3-yl]-pyrazol-1-yl}-benzonitrile] | 
34 | < 500 | Cn1cc(-c2cnn(-c3ccccc3C#N)c2)c(-c2ccc(F)cc2)cc1=O [Example 215, 2-{4-[4-(4-Fluoro-phenyl)-1-methyl-6-oxo-1,6-dihydro-pyridin-3-yl]-pyrazol-1-yl}-benzonitrile] | 

Row | Structure (SMILES) | IC50 [1] [nM] | IC50 [nM]
35 | Cc1cccc(C)c1-c1cc(=O)n(C)cc1-c1cnn(Cc2ccccc2)c1 [Example 189, 5-(1-Benzyl-1H-pyrazol-4-yl)-4-(2,6-dimethyl-phenyl)-1-methyl-1H-pyridin-2-one] | > 5000 | 
36 | Cc1c(-c2cnn(Cc3ccccc3)c2)ccc(=O)n1C [Example 195, 5-(1-Benzyl-1H-pyrazol-4-yl)-1,6-dimethyl-1H-pyridin-2-one] | > 5000 | 
37 | CC(c1ccccc1)n1cc(-c2cc(N(C)C)c(=O)n(C)c2)cn1 (stereo not drawn) [Example 196, 3-Dimethylamino-1-methyl-5-[1-(1-phenyl-ethyl)-1H-pyrazol-4-yl]-1H-pyridin-2-one] | 500 to 5000 | 
38 | CC(c1ccccc1)n1cc(-c2cc(C3CC3)c(=O)n(C)c2)cn1 (stereo not drawn) [Example 197, 3-Cyclopropyl-1-methyl-5-[1-(1-phenyl-ethyl)1H-pyrazol-4-yl]-1H-pyridin-2-one] | > 5000 | 
39 | Cn1cc(-c2cnn(Cc3ccccc3)c2)c(N)cc1=O [Example 200, 4-amino-5-(1-benzyl-1H-pyrazol-4-yl)-1-methylpyridin-2(1H)-one] | 500 to 5000 | 
